Experimental data taken from patent US20210196671A1, “COMPOSITIONS COMPRISING 3'-O-METHYL-4'-O-SULFATE EPICATECHIN AND THERAPEUTIC USES OF SUCH COMPOSITIONS” (SOCIÉTÉ DES PRODUITS NESTLÉ S.A., priority 2016, published 2021).

Target: T1, h-TRPA1 (Homo sapiens, UniProt O75762)
T1 construct: expressed in transfected cells; host or cells: CHO cells
Test: activation of CHO cells expressing h-TRPA1, calcium imaging
Format: cell-based
Method: Several epicatechin metabolites were tested in vitro to determine if any of these compounds are an agonist of the cation channel of TRPA1. Specifically, the activation of CHO cells expressing h-TRPA1 was tested according to the calcium imaging method described in Riera et al. (Riera, C. E., Vogel, H., Simon, S. A., Damak, S., & le Coutre, J. Sensory attributes of complex tasting divalent salts are mediated by TRPM5 and TRPV1 channels. J. Neurosci. 29, 2654-2662 (2009)).

[1] = concentration (max) tested 100 mM
[2] = concentration (max) tested 3 mM

T1 sequence (O75762 whole entry): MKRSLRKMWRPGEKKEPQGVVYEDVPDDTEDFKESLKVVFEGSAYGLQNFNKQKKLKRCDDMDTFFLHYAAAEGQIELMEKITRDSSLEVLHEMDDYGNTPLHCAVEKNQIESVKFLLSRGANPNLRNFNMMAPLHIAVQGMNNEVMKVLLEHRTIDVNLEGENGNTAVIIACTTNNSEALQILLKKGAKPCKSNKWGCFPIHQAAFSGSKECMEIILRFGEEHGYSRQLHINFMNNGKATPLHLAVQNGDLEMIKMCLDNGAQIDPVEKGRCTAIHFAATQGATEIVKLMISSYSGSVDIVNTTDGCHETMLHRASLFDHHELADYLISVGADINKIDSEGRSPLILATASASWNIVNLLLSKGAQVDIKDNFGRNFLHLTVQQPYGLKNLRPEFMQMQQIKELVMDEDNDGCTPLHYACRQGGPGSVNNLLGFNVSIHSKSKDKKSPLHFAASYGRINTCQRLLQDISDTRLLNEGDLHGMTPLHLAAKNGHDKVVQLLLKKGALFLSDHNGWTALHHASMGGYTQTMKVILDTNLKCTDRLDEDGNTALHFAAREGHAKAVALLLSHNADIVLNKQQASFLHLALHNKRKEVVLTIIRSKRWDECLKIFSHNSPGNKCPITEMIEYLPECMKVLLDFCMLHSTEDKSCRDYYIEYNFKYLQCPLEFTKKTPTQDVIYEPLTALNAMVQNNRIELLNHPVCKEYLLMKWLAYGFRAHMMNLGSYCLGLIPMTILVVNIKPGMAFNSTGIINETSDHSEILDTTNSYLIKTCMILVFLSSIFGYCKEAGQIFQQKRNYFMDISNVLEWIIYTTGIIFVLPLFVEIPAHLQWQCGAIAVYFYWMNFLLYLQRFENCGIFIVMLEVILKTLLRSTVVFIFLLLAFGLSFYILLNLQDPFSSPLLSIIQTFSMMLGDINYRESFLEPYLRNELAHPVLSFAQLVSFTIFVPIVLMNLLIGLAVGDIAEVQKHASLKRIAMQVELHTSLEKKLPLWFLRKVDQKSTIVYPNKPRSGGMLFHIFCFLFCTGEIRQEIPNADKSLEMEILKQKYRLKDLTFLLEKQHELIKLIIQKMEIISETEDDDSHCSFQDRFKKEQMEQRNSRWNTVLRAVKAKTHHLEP

Compound | Activity vs hTRPA1 [1] | Activity vs hTRPA1 [2] | further results
O=S(=O)(O)Oc1cc([C@H]2Oc3cc(O)cc(O)c3C[C@H]2O)ccc1O [3′-O-sulfate-EC] | Inactive |  | 
O=S(=O)(O)Oc1ccc([C@H]2Oc3cc(O)cc(O)c3C[C@H]2O)cc1O [4′-O-sulfate-EC] | Inactive |  | 
Hesperetin-7-3-O-Glucuronide |  | Inactive | 
COc1ccc([C@H]2Oc3cc(O)cc(O)c3C[C@H]2O)cc1O [4′-O-methyl-EC] | Inactive |  | 
COc1cc([C@H]2Oc3cc(O)cc(O)c3C[C@H]2O)ccc1O [3′-O-methyl-EC] | Inactive |  | 
Hesperetin-4-O-Glucuronide |  | Inactive | 
COc1ccc(C2CC(=O)c3c(O)cc(O)cc3O2)cc1O[C@@H]1O[C@H](C(=O)O)[C@@H](O)[C@H](O)[C@H]1O (stereo partly drawn) [Hesperetin-3-O-Glucuronide] |  | Inactive | 
COc1cc([C@H]2Oc3cc(OS(=O)(=O)O)cc(O)c3C[C@H]2O)ccc1O [3′-O-methyl-7-O-sulfate-EC] | Inactive |  | 
COc1cc([C@H]2Oc3cc(O)cc(O)c3C[C@H]2O)ccc1OS(=O)(=O)O [3′-O-methyl-4′-O-sulfate-EC, 3′-O-methyl-4′-O-sulfate epicatechin] |  |  | Activity vs hTRPA1 (concentration (max) tested 1 mM): Active
